From ChEMBL document CHEMBL4024706 (Eur J Med Chem, 2017)

Assays:
[1] = molecular target: Mitogen-activated protein kinase 3 (Homo sapiens) (UniProt P27361); assay: Inhibition of wild-type human full length ERK1 (M1 to P379 residues) expressed in bacterial expression system assessed as residual activity at 1 uM by Kinomescan method relative to control
[2] = molecular target: Serine/threonine-protein kinase PLK1 (Homo sapiens) (UniProt P53350); assay: Inhibition of wild-type human partial length PLK1 (A33 to F325 residues) expressed in mammalian expression system assessed as residual activity at 1 uM by Kinomescan method relative to control
Serine/threonine-protein kinase PLK1 (Homo sapiens), sequence (P53350 whole entry, the tested form may be a part): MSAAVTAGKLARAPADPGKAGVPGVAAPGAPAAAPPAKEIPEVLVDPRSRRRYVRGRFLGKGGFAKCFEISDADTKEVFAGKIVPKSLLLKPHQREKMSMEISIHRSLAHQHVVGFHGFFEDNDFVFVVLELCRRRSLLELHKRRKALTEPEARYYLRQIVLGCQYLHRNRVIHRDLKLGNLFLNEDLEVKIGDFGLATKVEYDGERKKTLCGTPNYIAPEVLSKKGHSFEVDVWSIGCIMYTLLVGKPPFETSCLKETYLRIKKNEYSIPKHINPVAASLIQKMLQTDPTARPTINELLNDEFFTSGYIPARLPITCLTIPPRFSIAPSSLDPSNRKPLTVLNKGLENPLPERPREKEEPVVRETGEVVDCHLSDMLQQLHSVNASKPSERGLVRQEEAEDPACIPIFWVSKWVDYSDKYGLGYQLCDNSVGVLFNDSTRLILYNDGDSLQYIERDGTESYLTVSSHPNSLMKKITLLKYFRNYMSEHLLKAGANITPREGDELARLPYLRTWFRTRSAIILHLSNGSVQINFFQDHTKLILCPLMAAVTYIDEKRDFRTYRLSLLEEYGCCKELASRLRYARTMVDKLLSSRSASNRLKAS

[3] = molecular target: Activin receptor type-1-like (Homo sapiens) (UniProt P37023); assay: Inhibition of wild-type human ACVRL1 (L164 to Q503 residues) expressed in bacterial expression system assessed as residual activity at 1 uM by Kinomescan method relative to control
[4] = molecular target: Hepatocyte growth factor receptor (Homo sapiens) (UniProt P08581); assay: Inhibition of wild-type human partial length MET (D1010 to S1367 residues) expressed in bacterial expression system assessed as residual activity at 1 uM by Kinomescan method relative to control
[5] = molecular target: Serine/threonine-protein kinase Nek11 (Homo sapiens) (UniProt Q8NG66); assay: Inhibition of wild-type human partial length NEK11 (M1 to E313 residues) expressed in mammalian expression system assessed as residual activity at 1 uM by Kinomescan method relative to control
[6] = molecular target: Serine/threonine-protein kinase Nek1 (Homo sapiens) (UniProt Q96PY6); assay: Inhibition of wild-type human partial length NEK1 (M1 to K278 residues) expressed in bacterial expression system assessed as residual activity at 1 uM by Kinomescan method relative to control
[7] = molecular target: Cyclin-dependent kinase 15 (Homo sapiens) (UniProt Q96Q40); assay: Inhibition of wild-type human full length PFTAIRE2 (M1 to W384 residues) expressed in bacterial expression system assessed as residual activity at 1 uM by Kinomescan method relative to control
Cyclin-dependent kinase 15 (Homo sapiens), sequence (Q96Q40 whole entry, the tested form may be a part): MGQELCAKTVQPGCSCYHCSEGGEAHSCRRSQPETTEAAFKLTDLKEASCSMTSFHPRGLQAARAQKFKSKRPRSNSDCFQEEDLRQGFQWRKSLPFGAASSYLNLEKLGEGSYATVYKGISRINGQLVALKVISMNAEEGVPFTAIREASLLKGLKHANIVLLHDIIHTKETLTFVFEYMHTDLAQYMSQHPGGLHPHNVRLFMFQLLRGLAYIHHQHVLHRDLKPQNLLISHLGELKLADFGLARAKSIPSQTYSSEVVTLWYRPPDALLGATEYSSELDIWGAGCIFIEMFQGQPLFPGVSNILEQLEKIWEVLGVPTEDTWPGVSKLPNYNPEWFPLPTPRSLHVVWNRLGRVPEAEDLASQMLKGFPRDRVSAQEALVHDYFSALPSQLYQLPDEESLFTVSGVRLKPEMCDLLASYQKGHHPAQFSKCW

[8] = molecular target: Ephrin type-B receptor 2 (Homo sapiens) (UniProt P29323); assay: Inhibition of wild-type human partial length EPHB2 (I597 to L902 residues) expressed in bacterial expression system assessed as residual activity at 1 uM by Kinomescan method relative to control
Ephrin type-B receptor 2 (Homo sapiens), sequence (P29323 whole entry, the tested form may be a part): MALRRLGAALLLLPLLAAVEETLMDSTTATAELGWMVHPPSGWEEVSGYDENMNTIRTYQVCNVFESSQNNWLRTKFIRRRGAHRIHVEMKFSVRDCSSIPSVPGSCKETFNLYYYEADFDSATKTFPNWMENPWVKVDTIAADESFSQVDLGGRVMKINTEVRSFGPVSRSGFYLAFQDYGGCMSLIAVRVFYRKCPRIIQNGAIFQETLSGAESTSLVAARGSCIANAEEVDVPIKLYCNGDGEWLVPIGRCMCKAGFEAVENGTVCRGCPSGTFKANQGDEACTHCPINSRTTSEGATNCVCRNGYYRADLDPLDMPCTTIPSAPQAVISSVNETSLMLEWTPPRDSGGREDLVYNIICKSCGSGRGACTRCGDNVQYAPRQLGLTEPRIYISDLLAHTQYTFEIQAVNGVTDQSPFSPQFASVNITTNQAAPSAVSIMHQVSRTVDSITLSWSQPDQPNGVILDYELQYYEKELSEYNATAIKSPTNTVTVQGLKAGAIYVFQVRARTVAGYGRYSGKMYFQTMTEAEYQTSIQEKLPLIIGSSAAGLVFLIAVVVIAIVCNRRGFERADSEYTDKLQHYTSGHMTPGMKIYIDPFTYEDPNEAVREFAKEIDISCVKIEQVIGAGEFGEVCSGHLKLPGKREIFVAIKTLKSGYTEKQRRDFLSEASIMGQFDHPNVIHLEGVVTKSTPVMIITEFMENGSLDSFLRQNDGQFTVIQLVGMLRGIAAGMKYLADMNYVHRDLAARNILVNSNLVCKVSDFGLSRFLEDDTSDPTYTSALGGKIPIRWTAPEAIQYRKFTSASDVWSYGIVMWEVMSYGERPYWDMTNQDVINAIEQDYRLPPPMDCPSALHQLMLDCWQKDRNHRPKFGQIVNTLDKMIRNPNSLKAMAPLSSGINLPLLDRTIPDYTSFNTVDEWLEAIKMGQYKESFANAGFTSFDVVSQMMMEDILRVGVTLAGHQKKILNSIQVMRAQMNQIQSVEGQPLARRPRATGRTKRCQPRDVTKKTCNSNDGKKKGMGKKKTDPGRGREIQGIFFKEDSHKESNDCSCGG

[9] = molecular target: Tyrosine-protein kinase JAK1 (Homo sapiens) (UniProt P23458); assay: Inhibition of wild-type human partial length JAK1 JH1 catalytic domain (V856 to K1154 residues) expressed in bacterial expression system assessed as residual activity at 1 uM by Kinomescan method relative to control
Tyrosine-protein kinase JAK1 (Homo sapiens), sequence (P23458 whole entry, the tested form may be a part): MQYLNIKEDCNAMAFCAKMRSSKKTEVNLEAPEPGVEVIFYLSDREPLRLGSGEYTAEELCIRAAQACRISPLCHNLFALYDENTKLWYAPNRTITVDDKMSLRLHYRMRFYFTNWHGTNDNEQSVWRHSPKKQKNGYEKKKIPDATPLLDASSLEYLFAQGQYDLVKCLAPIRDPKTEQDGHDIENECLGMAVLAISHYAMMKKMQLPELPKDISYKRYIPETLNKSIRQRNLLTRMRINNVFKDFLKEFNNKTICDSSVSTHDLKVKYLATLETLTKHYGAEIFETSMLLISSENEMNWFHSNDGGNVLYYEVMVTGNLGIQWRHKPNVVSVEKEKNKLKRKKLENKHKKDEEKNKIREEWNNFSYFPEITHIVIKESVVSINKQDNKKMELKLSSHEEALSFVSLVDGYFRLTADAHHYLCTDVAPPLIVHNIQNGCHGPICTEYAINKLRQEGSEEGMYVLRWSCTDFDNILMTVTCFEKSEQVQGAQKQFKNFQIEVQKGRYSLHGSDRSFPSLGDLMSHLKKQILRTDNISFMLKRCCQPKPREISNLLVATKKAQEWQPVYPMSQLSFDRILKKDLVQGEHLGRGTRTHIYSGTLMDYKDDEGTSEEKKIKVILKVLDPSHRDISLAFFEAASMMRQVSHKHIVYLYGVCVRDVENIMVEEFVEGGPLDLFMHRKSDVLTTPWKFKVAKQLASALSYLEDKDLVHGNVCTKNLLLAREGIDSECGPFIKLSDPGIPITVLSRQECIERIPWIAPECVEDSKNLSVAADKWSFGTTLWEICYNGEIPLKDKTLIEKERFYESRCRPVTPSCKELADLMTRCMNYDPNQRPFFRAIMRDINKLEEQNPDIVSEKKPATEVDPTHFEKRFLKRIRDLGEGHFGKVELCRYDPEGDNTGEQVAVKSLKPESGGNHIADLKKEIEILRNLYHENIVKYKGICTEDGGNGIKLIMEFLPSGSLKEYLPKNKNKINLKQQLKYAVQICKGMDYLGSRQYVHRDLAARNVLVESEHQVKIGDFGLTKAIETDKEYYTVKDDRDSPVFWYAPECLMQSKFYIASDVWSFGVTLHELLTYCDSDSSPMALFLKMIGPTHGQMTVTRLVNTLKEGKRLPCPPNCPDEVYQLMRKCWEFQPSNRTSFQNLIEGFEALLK

[10] = molecular target: Dual specificity tyrosine-phosphorylation-regulated kinase 1A (Homo sapiens) (UniProt Q13627); assay: Inhibition of wild-type human partial length DYRK1A (H129 to S509 residues) expressed in mammalian expression system assessed as residual activity at 1 uM by Kinomescan method relative to control
[11] = molecular target: Proto-oncogene tyrosine-protein kinase Src (Homo sapiens) (UniProt P12931); assay: Inhibition of wild-type human partial length SRC (L240 to L536 residues) expressed in bacterial expression system assessed as residual activity at 1 uM by Kinomescan method relative to control
Proto-oncogene tyrosine-protein kinase Src (Homo sapiens), sequence (P12931 2-536 limits assumed): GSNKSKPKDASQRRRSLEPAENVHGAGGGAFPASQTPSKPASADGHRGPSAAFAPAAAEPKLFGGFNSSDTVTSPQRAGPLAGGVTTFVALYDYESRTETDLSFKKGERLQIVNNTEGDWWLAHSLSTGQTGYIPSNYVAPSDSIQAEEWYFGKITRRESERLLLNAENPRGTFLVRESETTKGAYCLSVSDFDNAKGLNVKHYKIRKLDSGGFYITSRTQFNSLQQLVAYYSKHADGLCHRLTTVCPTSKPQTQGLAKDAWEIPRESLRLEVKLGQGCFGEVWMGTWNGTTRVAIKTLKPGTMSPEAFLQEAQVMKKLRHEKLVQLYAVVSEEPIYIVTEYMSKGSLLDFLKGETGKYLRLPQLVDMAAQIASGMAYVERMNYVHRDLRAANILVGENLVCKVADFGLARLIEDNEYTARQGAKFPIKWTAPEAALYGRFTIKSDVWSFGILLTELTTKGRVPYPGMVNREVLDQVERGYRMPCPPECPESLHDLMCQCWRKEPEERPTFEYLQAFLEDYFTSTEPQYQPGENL

[12] = molecular target: Phosphatidylinositol 4,5-bisphosphate 3-kinase catalytic subunit alpha isoform (Homo sapiens) (UniProt P42336); assay: Inhibition of wild-type human partial length PIK3CA (R108 to N1068 residues) expressed in mammalian expression system assessed as residual activity at 1 uM by Kinomescan method relative to control
[13] = molecular target: Ephrin type-A receptor 5 (Homo sapiens) (UniProt P54756); assay: Inhibition of wild-type human partial length EPHA5 (T627 to V930 residues) expressed in bacterial expression system assessed as residual activity at 1 uM by Kinomescan method relative to control
[14] = molecular target: Dual specificity testis-specific protein kinase 1 (Homo sapiens) (UniProt Q15569); assay: Inhibition of wild-type human […] length TESK1 (R37 to S626 residues) expressed in bacterial expression system assessed as residual activity at 1 uM by Kinomescan method relative to control
[15] = molecular target: Tyrosine-protein kinase ZAP-70 (Homo sapiens) (UniProt P43403); assay: Inhibition of wild-type human partial length ZAP70 (D20 to G299 residues) expressed in mammalian expression system assessed as residual activity at 1 uM by Kinomescan method relative to control
[16] = molecular target: Serine/threonine-protein kinase Sgk3 (Homo sapiens) (UniProt Q96BR1); assay: Inhibition of wild-type human partial length SGK3 (M119 to L496 residues) expressed in mammalian expression system assessed as residual activity at 1 uM by Kinomescan method relative to control
[17] = molecular target: 5'-AMP-activated protein kinase catalytic subunit alpha-1 (Homo sapiens) (UniProt Q13131); assay: Inhibition of wild-type human partial length AMPK alpha1 (M1 to E306 residues) expressed in bacterial expression system assessed as residual activity at 1 uM by Kinomescan method relative to control
[18] = molecular target: Microtubule-associated serine/threonine-protein kinase 1 (Homo sapiens) (UniProt Q9Y2H9); assay: Inhibition of wild-type human partial length MAST1 (S346 to V730 residues) expressed in mammalian expression system assessed as residual activity at 1 uM by Kinomescan method relative to control
[19] = molecular target: Fibroblast growth factor receptor 1 (Homo sapiens) (UniProt P11362); assay: Inhibition of wild-type human partial length FGFR1 (P357 to V669 residues) expressed in bacterial expression system assessed as residual activity at 1 uM by Kinomescan method relative to control
[20] = molecular target: Mitogen-activated protein kinase kinase kinase 19 (Homo sapiens) (UniProt Q56UN5); assay: Inhibition of wild-type human partial length YSK4 (T1019 to H1328 residues) expressed in mammalian expression system assessed as residual activity at 1 uM by Kinomescan method relative to control
[21] = molecular target: RAC-beta serine/threonine-protein kinase (Homo sapiens) (UniProt P31751); assay: Inhibition of wild-type human partial length AKT2 expressed in bacterial expression system assessed as residual activity at 1 uM by Kinomescan method relative to control
[22] = tested on: Proto-oncogene tyrosine-protein kinase receptor Ret (Homo sapiens), P07949 [V804M]; assay: Inhibition of human partial length RET V804M mutant (E713 to D1014 residues) expressed in bacterial expression system assessed as residual activity at 1 uM by Kinomescan method relative to control
Proto-oncogene tyrosine-protein kinase receptor Ret (Homo sapiens), P07949 [V804M], sequence (P07949 whole entry V804M, the tested form may be a part): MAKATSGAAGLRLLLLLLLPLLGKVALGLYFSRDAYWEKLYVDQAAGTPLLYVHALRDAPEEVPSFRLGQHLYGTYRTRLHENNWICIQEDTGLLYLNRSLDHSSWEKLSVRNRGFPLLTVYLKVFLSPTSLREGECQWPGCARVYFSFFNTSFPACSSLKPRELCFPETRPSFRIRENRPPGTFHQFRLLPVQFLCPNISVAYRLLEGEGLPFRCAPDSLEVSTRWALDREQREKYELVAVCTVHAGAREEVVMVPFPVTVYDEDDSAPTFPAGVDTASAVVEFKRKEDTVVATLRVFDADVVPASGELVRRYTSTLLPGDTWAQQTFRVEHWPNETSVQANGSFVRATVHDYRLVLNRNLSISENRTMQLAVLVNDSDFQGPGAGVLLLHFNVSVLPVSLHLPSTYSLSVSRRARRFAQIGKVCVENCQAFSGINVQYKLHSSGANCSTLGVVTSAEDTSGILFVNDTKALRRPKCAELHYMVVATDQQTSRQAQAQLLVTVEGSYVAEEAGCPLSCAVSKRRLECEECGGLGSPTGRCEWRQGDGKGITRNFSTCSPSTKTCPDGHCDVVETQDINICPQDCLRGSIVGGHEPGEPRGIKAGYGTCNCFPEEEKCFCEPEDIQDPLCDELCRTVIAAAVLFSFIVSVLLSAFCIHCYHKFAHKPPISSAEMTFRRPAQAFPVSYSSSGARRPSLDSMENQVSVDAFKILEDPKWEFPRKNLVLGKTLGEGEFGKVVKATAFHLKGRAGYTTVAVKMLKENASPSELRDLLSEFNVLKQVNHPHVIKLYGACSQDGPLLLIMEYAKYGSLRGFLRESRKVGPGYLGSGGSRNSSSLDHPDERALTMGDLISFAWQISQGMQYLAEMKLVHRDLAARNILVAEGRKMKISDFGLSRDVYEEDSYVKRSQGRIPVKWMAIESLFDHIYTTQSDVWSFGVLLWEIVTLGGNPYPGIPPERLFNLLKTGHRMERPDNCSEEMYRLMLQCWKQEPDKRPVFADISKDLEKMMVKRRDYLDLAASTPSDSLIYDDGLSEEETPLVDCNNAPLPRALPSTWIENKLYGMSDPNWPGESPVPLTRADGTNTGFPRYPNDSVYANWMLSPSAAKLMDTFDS

[23] = molecular target: Calcium/calmodulin-dependent protein kinase type 1B (Homo sapiens) (UniProt Q6P2M8); assay: Inhibition of wild-type human partial length CAMK1B (W9 to A311 residues) expressed in mammalian expression system assessed as residual activity at 1 uM by Kinomescan method relative to control
[24] = molecular target: Protein kinase C theta type (Homo sapiens) (UniProt Q04759); assay: Inhibition of wild-type human partial length PRKCQ (L350 to S706 residues) expressed in bacterial expression system assessed as residual activity at 1 uM by Kinomescan method relative to control
[25] = tested on: Serine/threonine-protein kinase B-raf (Homo sapiens), P15056 [V600E]; assay: Inhibition of human partial length BRAF V600E mutant (S429 to E741 residues) expressed in mammalian expression system assessed as residual activity at 1 uM by Kinomescan method relative to control

Compound `C=CC(=O)Nc1cc(Nc2cc(-c3cccc(NC(=O)c4ccc(C(C)(C)C)cc4)c3C)cn(C)c2=O)ccc1C(=O)N1CCOCC1` has an Activity [1] of 99%, an Activity [2] of 100% and an Activity [3] of 89%. For the same compound, the Activity [4] was 96%, the Activity [5] was 97% and the Activity [6] was 100%. It also gave an Activity [7] of 97%, an Activity [8] of 100% and an Activity [9] of 100%. For the same compound, the Activity [10] was 100%, the Activity [11] was 99% and the Activity [12] was 100%. For the same compound, the Activity [13] was 92%, the Activity [14] was 90% and the Activity [15] was 100%. The Activity [16] was 81%, the Activity [17] was 89% and the Activity [18] was 98%. The Activity [19] was 94%, the Activity [20] was 100% and the Activity [21] was 95%. The Activity [22] was 96%, the Activity [23] was 85% and the Activity [24] was 91%. It also gave an Activity [25] of 100%.
